Series [1] has as its target T1, Rho-associated protein kinase (Homo sapiens, UniProt O75116+Q13464).
Series [2] in a line: Inhibition of MCP1-induced chemotaxis in U937 cells overexpressing CCR2. The settings on record: u-937.
Series [3] concerns the target Rho-associated protein kinase 2 (Rattus norvegicus) (UniProt Q62868). The series can be described thus: Ex vivo inhibition of Rho kinase activity in Sprague-Dawley rat serum at 30 mg/kg, po after 1 hrs. Format: organism-based. More on the design: dose 30 mg/kg; scale not given: the % may be the effect or the level left.
The target is the same in series [4]. The series can be described thus: Ex vivo inhibition of Rho kinase activity in Sprague-Dawley rat serum at 30 mg/kg, po after 4 hrs. Format: organism-based. More on the design: dose 30 mg/kg; scale not given: the % may be the effect or the level left.
The target is the same in series [5]. The series can be described thus: Ex vivo inhibition of Rho kinase activity in Sprague-Dawley rat serum at 30 mg/kg, po after 8 hrs. Format: organism-based. More on the design: dose 30 mg/kg; scale not given: the % may be the effect or the level left.
Series [6] can be described thus: Metabolic stability in rat liver microsome at 10 uM after 30 mins. Conditions: liver microsomes. Background: Liver microsomes are vesicles of endoplasmic reticulum, rich in cytochrome P450 enzymes.
Series [7] has as its target T1, Rho-associated protein kinase. The series can be described thus: Inhibition of TPA-induced Rho kinase dependent MBS phosphorylation in MDCK 2 cells. Format: functional, cell-based. The settings on record: Canis lupus familiaris.

By IC50 is commonly meant the concentration needed to halve the response being measured. As a reminder, the share remaining is the share of the starting amount still present when the sample was taken.

Each structure is given as a SMILES string.

Rho-associated protein kinase 2 (Rattus norvegicus), sequence (Q62868 whole entry, looked up): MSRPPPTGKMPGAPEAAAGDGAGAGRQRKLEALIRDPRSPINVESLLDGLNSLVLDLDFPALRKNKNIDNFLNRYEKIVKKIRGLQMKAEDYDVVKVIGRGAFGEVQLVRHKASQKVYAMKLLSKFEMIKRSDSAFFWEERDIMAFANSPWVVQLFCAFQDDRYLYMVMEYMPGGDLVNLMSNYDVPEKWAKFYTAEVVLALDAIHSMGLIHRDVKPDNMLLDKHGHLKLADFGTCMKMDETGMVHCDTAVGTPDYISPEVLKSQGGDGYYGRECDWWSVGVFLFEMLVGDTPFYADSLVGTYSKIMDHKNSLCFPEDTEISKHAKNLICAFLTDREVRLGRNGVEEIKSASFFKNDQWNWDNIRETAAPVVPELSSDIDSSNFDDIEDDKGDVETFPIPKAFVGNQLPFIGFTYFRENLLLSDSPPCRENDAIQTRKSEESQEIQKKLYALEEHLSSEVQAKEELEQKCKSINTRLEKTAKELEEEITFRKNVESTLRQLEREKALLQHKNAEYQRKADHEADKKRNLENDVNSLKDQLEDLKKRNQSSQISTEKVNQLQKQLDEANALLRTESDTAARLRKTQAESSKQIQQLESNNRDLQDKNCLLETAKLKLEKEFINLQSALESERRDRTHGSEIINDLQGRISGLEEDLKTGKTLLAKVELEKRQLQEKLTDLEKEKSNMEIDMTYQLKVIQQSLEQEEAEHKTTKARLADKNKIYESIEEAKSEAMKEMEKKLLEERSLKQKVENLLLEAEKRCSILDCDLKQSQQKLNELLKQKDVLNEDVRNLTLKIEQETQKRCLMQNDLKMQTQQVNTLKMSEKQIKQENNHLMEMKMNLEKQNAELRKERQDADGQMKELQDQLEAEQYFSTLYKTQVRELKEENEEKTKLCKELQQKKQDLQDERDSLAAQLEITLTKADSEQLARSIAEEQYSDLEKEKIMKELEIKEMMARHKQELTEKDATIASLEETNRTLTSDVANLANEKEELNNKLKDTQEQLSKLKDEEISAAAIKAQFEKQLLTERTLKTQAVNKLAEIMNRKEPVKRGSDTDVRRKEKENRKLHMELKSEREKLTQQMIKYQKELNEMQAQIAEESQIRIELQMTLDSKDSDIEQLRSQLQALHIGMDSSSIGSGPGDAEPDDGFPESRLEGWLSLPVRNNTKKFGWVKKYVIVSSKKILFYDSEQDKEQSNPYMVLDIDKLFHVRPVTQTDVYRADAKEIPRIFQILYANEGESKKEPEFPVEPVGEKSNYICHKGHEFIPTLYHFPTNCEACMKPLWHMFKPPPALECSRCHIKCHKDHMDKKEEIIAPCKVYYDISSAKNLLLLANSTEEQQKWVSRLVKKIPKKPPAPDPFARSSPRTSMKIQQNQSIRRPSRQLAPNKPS
T1 sequence (O75116 whole entry, looked up): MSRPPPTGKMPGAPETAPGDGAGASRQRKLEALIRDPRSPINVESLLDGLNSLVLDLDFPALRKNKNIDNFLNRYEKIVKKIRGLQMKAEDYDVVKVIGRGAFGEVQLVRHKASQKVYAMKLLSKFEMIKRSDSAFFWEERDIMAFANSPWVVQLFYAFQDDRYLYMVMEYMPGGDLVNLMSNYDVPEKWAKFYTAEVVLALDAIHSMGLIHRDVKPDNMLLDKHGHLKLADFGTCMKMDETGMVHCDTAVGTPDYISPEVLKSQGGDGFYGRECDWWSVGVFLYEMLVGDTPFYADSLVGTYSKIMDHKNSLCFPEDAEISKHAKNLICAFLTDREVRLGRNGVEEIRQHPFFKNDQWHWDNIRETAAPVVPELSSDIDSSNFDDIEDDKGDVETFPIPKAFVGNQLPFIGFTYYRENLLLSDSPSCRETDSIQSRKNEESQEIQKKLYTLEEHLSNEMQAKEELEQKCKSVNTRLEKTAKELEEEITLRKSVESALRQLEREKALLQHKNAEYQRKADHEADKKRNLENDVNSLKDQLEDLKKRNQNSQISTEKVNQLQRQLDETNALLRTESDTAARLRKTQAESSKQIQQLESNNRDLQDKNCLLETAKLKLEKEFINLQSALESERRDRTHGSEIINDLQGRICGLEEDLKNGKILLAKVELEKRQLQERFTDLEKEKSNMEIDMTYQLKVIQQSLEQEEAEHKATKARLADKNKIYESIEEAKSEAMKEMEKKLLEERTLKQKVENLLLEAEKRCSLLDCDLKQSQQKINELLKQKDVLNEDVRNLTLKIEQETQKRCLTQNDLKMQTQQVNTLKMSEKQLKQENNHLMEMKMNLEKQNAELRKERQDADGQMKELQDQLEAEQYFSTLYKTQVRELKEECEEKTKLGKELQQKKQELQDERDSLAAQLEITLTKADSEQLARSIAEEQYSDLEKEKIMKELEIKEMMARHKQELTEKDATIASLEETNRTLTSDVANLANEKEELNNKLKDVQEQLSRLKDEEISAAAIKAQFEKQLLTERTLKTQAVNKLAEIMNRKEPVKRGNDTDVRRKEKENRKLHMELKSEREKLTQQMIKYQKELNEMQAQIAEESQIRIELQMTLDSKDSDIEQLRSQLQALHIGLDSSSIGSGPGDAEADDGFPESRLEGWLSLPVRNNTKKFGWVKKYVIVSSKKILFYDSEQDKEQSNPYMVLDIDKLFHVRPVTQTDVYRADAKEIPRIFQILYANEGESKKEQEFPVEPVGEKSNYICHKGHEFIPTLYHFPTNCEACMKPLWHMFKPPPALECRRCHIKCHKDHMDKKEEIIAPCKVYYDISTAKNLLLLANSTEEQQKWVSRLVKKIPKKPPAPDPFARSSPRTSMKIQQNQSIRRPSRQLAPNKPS
T1 sequence (Q13464 whole entry, looked up): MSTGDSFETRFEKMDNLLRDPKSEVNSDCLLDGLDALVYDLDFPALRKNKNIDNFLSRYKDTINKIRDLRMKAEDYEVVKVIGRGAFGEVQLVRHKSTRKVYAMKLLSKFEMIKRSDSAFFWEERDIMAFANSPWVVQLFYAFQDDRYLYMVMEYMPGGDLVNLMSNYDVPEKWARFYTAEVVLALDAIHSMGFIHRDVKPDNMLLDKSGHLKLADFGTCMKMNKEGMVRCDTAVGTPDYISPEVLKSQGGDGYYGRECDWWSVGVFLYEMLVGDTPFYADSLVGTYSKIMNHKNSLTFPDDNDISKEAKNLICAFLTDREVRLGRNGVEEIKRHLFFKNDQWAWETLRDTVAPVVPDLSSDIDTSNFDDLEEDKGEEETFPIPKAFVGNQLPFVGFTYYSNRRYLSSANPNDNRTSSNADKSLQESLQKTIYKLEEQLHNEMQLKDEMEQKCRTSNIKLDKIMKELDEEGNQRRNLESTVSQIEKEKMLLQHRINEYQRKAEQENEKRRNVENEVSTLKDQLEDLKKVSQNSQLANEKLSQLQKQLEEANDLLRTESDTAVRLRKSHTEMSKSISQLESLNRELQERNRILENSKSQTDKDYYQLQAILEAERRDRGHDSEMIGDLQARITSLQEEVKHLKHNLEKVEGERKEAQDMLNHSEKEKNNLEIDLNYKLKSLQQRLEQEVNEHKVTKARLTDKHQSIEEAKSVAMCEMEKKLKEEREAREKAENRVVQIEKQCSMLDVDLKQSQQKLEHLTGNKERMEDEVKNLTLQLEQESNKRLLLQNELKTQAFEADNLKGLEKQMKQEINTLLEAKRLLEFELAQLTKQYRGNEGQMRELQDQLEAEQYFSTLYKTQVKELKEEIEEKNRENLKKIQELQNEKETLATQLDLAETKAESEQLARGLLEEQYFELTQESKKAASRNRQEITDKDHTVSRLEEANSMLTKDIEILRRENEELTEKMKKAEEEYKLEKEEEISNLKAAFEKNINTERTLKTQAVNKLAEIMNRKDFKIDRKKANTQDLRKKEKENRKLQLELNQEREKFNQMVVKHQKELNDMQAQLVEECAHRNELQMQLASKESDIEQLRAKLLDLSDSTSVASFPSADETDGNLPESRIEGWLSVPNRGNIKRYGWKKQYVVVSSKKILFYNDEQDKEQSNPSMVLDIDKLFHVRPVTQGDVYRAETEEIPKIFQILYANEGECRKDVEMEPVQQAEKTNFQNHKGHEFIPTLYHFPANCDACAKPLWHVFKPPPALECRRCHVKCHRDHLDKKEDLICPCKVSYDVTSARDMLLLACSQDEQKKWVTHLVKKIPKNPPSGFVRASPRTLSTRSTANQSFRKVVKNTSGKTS

In series [1], `CC(C)CN1CCC(Nc2cccc3cnccc23)CC1` had an IC50 of 210 nM. On the same count and under the same terms, in the case of `c1ccc(CCN[C@H]2CC[C@H](Nc3cccc4cnccc34)CC2)cc1` it was 440 nM; in that of `Clc1cccc(CN2CCC(Nc3cccc4cnccc34)C2)c1` (stereo unspecified), 65 nM; in that of `c1cc(N[C@H]2CC[C@H](NC3CC3)CC2)c2ccncc2c1`, 70 nM. Consider `Fc1cccc(F)c1CN1CCC(Nc2cccc3cnccc23)C1` (stereo unspecified), for which the half-maximal inhibitory concentration (IC50) in series [1] was 75 nM. For `O=S(=O)(c1cccc2cnccc12)N1CCCNCC1` [FASUDIL], the midpoint of inhibition in series [2], the IC50, lay at 35000 nM.

`Clc1ccccc1CN1CCC(Nc2cccc3cnccc23)C1` (stereo unspecified): the 50% inhibitory concentration (IC50) in series [1] was found to be 100 nM. As to `Nc1ccccc1CN1CCC(Nc2cccc3cnccc23)C1` (stereo unspecified), the concentration for half-maximal inhibition (IC50) in series [1] is given as 205 nM. Compound `Nc1ccc(CN2CCC(Nc3cccc4cnccc34)C2)cc1` (stereo unspecified) showed an IC50 in series [1] of 235 nM. In series [1], `Clc1cccc(CN2CCCC(Nc3cccc4cnccc34)C2)c1` (stereo unspecified) gave an IC50 of 265 nM. For the compound `c1ccc(CCN[C@H]2CC[C@@H](Nc3cccc4cnccc34)CC2)cc1`, the IC50 in series [1] is 580 nM. As to `c1ccc(CN2CCC(Nc3cccc4cnccc34)CC2)cc1`, the IC50 in series [1] was 140 nM. As for `Clc1ccccc1CN1CCCC(Nc2cccc3cnccc23)C1` (stereo unspecified), in series [1], the half-inhibitory concentration (IC50) came to 210 nM. `Nc1cccc(CN2CC[C@H](Nc3cccc4cnccc34)C2)c1`: the Activity in series [3] worked out at 30%; in series [4], 17%; in series [5], 0%. This compound also gave a concentration for half-maximal inhibition (IC50) in series [1] of 310 nM. In series [1], `Fc1ccc(CN2CCC(Nc3cccc4cnccc34)C2)cc1` (stereo unspecified) yielded a concentration for half-maximal inhibition (IC50) of 95 nM.

With `c1cc(N[C@H]2CC[C@@H](NC3CC3)CC2)c2ccncc2c1`, the half-inhibitory concentration (IC50) in series [1] amounted to 195 nM.

In the case of `Nc1cccc(CN2CCC(Nc3cccc4cnccc34)C2)c1` (stereo unspecified), the amount remaining at 0.5 h, 10 µM in series [6] amounted to 67%. The compound further registered an IC50 in series [1] of 275 nM.

As to `Clc1ccc(CN2CCC(Nc3cccc4cnccc34)C2)cc1` (stereo unspecified), the IC50 in series [1] amounted to 65 nM.

On to `CCCN[C@H]1CC[C@H](Nc2cccc3cnccc23)CC1`, for which the IC50 in series [1] turned out to be 180 nM.

Turning to `CCCN[C@H]1CC[C@@H](Nc2cccc3cnccc23)CC1`, in series [1], the IC50 turned out to be 180 nM. Same read-out and setting: in the case of `CCCN1CCC(Nc2cccc3cnccc23)CC1` it was 345 nM; in that of `CC(C)CCN1CCCC(Nc2cccc3cnccc23)C1` (stereo unspecified), 270 nM. Turning to `Nc1cccc(CN2CC[C@@H](Nc3cccc4cnccc34)C2)c1`, the Activity was 52% in series [3], 42% in series [4], 26% in series [5] and “Dose-dependent effect” in series [7]. The concentration for half-maximal inhibition (IC50) in series [1] stood at 25 nM.
